Literature values as cited in US6710071B2, “Difluoromethylene aromatic ethers as inhibitors of glycine transport” (Pfizer Inc, priority 2001, dated 2004).

Tested on: NMDA receptor
Settings: effect blocked by a specific NMDA-site antagonist and a glycine-site antagonist

CN(CCC(Oc1ccc(-c2ccccc2)cc1)c1ccc(F)cc1)CC(=O)O (stereo not shown) [NFPS]
post synaptic current driven by the NMDA receptor: increased
